Tested on: Rattus norvegicus
Assay: Anti-hypertensive activity in fructose fed-induced hypertensive rat assessed as increase in ionized calcium level in serum at 20 mg/kg administered once daily for 28 days
Type: functional
Conditions: time 28 day

Compound: C=C1/C(=C\C=C2/CCC[C@]3(C)[C@@H]([C@H](C)CCCC(C)(C)O)CC[C@@H]23)C[C@@H](O)C[C@@H]1O [CALCITRIOL]
- Activity: 1.44 mM
